Experimental data taken from patent publication US8362000B2, “Azetidinyl diamides as monoacylglycerol lipase inhibitors” (Janssen Pharmaceutica NV, priority 2009, dated 2013).
Substitutions are numbered along the chain they refer to. Read-outs that look alike come from different tables or passages of the source.

Key:
mutant MGL = biological target: T1, mutant MGL (Homo sapiens, UniProt Q99685, L169S/L176S); assay: MGL ThermoFluor assay - mutant; format: binding
T1 sequence (Q99685 1-303 L169S/L176S): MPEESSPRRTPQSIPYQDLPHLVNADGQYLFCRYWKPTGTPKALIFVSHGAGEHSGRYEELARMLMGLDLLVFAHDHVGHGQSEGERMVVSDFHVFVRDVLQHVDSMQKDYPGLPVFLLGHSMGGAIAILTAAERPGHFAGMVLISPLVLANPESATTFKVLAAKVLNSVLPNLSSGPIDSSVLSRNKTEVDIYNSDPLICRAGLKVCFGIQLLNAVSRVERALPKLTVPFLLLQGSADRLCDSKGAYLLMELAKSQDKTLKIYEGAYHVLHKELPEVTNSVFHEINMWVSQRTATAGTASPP

[1] = biological target: T2, purified wild type MGL (wt-MGLL 6H-11-313) (Homo sapiens, UniProt Q99685)
T2 sequence (Q99685 1-303): T1 sequence (Q99685 1-303 L169S/L176S) with S169L, S176L

[2] = ThermoFluor concentration-response, read-out: MGL mutant ThermoFluor Kd
[3] = ThermoFluor, compound concentration measured by qNMR, read-out: MGL mutant ThermoFluor qKd (μM) (using qNMR conc.)
[4] = ThermoFluor, compound concentration measured by qNMR, read-out: MGL mutant ThermoFluor qKd (using qNMR conc.)
[5] = ThermoFluor thermal stability binding assay, read-out: MGL mutant ThermoFluor Kd
[6] = compound concentration measured by qNMR, read-out: MGL mutant ThermoFluor qKd (using qNMR conc.)

SMILES	IC50 [1]	other results
O=C(c1ccc2c(c1)C(Cc1cccc(C(F)(F)F)c1)(Cc1cccc(C(F)(F)F)c1)C(=O)N2)N1CC(N2CCN(C(=O)c3nccs3)CC2)C1 [Cpd 992]	7760 nM	Kd (mutant MGL; [2]): 0.561 µM
Cc1cc(C(=O)N2CC(N3CCN(C(=O)c4nccs4)CC3)C2)c(C)n1CC(F)(F)F [Cpd 788]	1230 nM	Kd (mutant MGL; [4]): 1.98 µM
O=C(c1ccccc1)N1CCN(C2CN(C(=O)c3ccc4c(ccn4-c4ccc(F)cn4)c3)C2)CC1 [Cpd 596, 1-(5-Fluoropyridin-2-yl)-5-({3-[4-(phenylcarbonyl)piperazin-1-yl]azetidin-1-yl}carbonyl)-1H-indole]	543 nM	Kd (mutant MGL; [4]): 0.628 µM
O=C(CCCc1ccccc1)N1CC(N2CCN(C(=O)c3nccs3)CC2)C1 [Cpd 1434]	> 16700 nM	Kd (mutant MGL; [5]): 53.8 µM
O=C(c1cscn1)N1CCN(C2CN(C(=O)c3cc4ccc(C(F)(F)F)cc4[nH]3)C2)CC1 [Cpd 828]	3730 nM	Kd (mutant MGL; [2]): 2.63 µM
O=C(c1ccccc1)N1CCN(C2CN(C(=O)c3ccc(Oc4ccccn4)c(Cl)c3)C2)CC1 [Cpd 525]	6990 nM	Kd (mutant MGL; [2]): 2.5 µM
CC(C)n1c(C(F)(F)F)nc2cc(C(=O)N3CC(N4CCN(C(=O)c5cscn5)CC4)C3)ccc21 [Cpd 831]	4100 nM	Kd (mutant MGL; [2]): 0.27 µM
Cc1c(C(=O)N2CCN(C3CN(C(=O)c4ccc[nH]4)C3)CC2)n(C)c2ccc(Cl)cc12 [Cpd 839]	5140 nM	Kd (mutant MGL; [4]): 2.5 µM
Cc1nc2cc(Cl)cc(Cl)c2cc1C(=O)N1CC(N2CCN(C(=O)c3nccs3)CC2)C1 [Cpd 823]	2970 nM	Kd (mutant MGL; [4]): 1.25 µM
O=C(c1nccs1)N1CCN(C2CN(C(=O)c3cccc4oc(-c5cccnc5)nc34)C2)CC1 [Cpd 1251]	684 nM	Kd (mutant MGL; [5]): 0.146 µM
Cc1c(C(=O)N2CC(N3CCN(C(=O)c4nccs4)CC3)C2)sc2nc3n(c(=O)c12)CCC3 [Cpd 824]	3120 nM	Kd (mutant MGL; [4]): 0.074 µM
O=C(c1ccccc1)N1CCN(C2CN(C(=O)c3cc4cc(-c5ccccc5)ccc4o3)C2)CC1 [Cpd 605]	1860 nM	Kd (mutant MGL; [5]): 1.89 µM
O=C(c1ccc(-n2ccc(C(F)(F)F)n2)cc1)N1CC(N2CCN(C(=O)c3nccs3)CC2)C1 [Cpd 1249]	605 nM	Kd (mutant MGL; [2]): 0.241 µM
O=C(c1ccccc1)N1CCN(C2CN(C(=O)c3sc4cc(Cl)ccc4c3C(F)(F)F)C2)CC1 [Cpd 512]	260 nM	Kd (mutant MGL; [2]): 0.05 µM
O=C(c1cscn1)N1CC(N2CCN(C(=O)c3cc4cc(Br)cnc4o3)CC2)C1 [Cpd 1449]	> 16700 nM	Kd (mutant MGL; [5]): 3.19 µM
Cc1c(C(=O)N2CC(N3CCN(C(=O)c4cscn4)CC3)C2)n(C)c2ccc(Cl)cc12 [Cpd 758]	535 nM	Kd (mutant MGL; [4]): 0.5 µM
Cc1c(C(=O)N2CC(N3CCN(C(=O)c4nccs4)CC3)C2)nc2ccc(Br)cn12 [Cpd 868]	12100 nM	Kd (mutant MGL; [4]): > 23.1 µM
O=C(c1cscn1)N1CCN(C2CN(C(=O)c3cc4ccc(C(F)(F)F)nc4o3)C2)CC1 [Cpd 808]	2080 nM	Kd (mutant MGL; [2]): 62.5 µM
O=C(c1cc2ccc(C(F)(F)F)cc2[nH]1)N1CC(N2CCN(C(=O)c3ccns3)CC2)C1 [Cpd 1445]	> 16700 nM	Kd (mutant MGL; [5]): > 31.2 µM
CN(C(=O)Cn1ccc2cc(C(=O)N3CC(N4CCN(C(=O)c5cscn5)CC4)C3)ccc21)c1ccccc1 [Cpd 1032]	3020 nM	Kd (mutant MGL; [6]): 1.1 µM
O=C(c1ccccc1)N1CCN(C2CN(C(=O)c3cccc4[nH]c(-c5cccc(F)c5)nc34)C2)CC1 [Cpd 609]	4330 nM	Kd (mutant MGL; [5]): 1 µM
Cc1nc2cc(C(=O)N3CC(N4CCN(C(=O)c5cscn5)CC4)C3)ccc2n1-c1ccccc1 [Cpd 1296]	3300 nM	Kd (mutant MGL; [6]): 0.197 µM
O=C(c1ccc2c(c1)[nH]c(=O)n2-c1ccc(F)cc1)N1CC(N2CCN(C(=O)c3cscn3)CC2)C1 [Cpd 940]	2240 nM	Kd (mutant MGL; [2]): 0.259 µM
O=C(c1ccccc1)N1CCN(C2CN(C(=O)c3cccc4[nH]c(-c5ccccc5)nc34)C2)CC1 [Cpd 601]	1550 nM	Kd (mutant MGL; [5]): 0.527 µM
O=C(c1cscn1)N1CC(N2CCN(C(=O)c3cc4cc(C(F)(F)F)ccc4[nH]3)CC2)C1 [Cpd 772]	799 nM	Kd (mutant MGL; [2]): 0.185 µM
O=C(c1ccc2c(c1)C(Cc1cccc(C(F)(F)F)c1)(Cc1cccc(C(F)(F)F)c1)C(=O)N2Cc1cccc(C(F)(F)F)c1)N1CC(N2CCN(C(=O)c3nccs3)CC2)C1 [Cpd 1430, 5-({3-[4-(1,3-Thiazol-2-ylcarbonyl)piperazin-1-yl]azetidin-1-yl}carbonyl)-1,3,3-tris[3-(trifluoromethyl)benzyl]-1,3-dihydro-2H-indol-2-one]	9890 nM	Kd (mutant MGL; [2]): 50 µM

These reach a lower IC50 [1]. Values come first.

IC50 [1]	SMILES	other results
< 5 nM	O=C(c1ccc2c(cnn2-c2cccc(OC(F)(F)F)c2)c1)N1CC(N2CCN(C(=O)c3nccs3)CC2)C1 [Cpd 1374]	Kd (mutant MGL; [3]): 0.007 µM
13 nM	O=C(c1ccc2c(c1)[nH]c(=O)n2-c1ccc(C(F)(F)F)cc1)N1CC(N2CCN(C(=O)c3nccs3)CC2)C1 [Cpd 936]	Kd (mutant MGL; [2]): 0.012 µM
171 nM	Cc1nc2cc(C(=O)N3CC(N4CCN(C(=O)c5nccs5)CC4)C3)ccc2n1-c1ccc(F)c(F)c1 [Cpd 1206]	Kd (mutant MGL; [6]): 0.018 µM
206 nM	O=C(c1ccc2c(c1)CCN2C(=O)c1ccccc1)N1CC(N2CCN(C(=O)c3nccs3)CC2)C1 [Cpd 724, 1-(Phenylcarbonyl)-5-({3-[4-(1,3-thiazol-2-ylcarbonyl)piperazin-1-yl]azetidin-1-yl}carbonyl)-2,3-dihydro-1H-indole]	Kd (mutant MGL; [2]): 0.05 µM
193 nM	O=C(c1cc2cc(-c3ccccc3)cnc2o1)N1CC(N2CCN(C(=O)c3nccs3)CC2)C1 [Cpd 1209]	Kd (mutant MGL; [3]): 0.942 µM
8 nM	Cc1cc(C(=O)N2CC(N3CCN(C(=O)c4cscn4)CC3)C2)cc2ccn(-c3ccc(F)cc3)c12 [Cpd 1076]	Kd (mutant MGL; [6]): 0.02 µM
47 nM	O=C(c1ccc(COCC(F)(F)F)cc1)N1CC(N2CCN(C(=O)c3nccs3)CC2)C1 [Cpd 694]	Kd (mutant MGL; [4]): 0.048 µM
40 nM	O=C(c1ccccc1)N1CCN(C2CN(C(=O)c3cc4ccn(-c5ccc(F)cc5)c4cc3F)C2)CC1 [Cpd 631]	Kd (mutant MGL; [6]): 0.052 µM
35 nM	Cc1c(C(=O)N2CC(N3CCN(C(=O)c4nccs4)CC3)C2)[nH]c2ccc(-c3cccnc3F)cc12 [Cpd 1149, 5-(2-Fluoropyridin-3-yl)-3-methyl-2-({3-[4-(1,3-thiazol-2-ylcarbonyl)piperazin-1-yl]azetidin-1-yl}carbonyl)-1H-indole]	Kd (mutant MGL; [3]): 0.004 µM
112 nM	O=C(c1ccccc1)N1CCN(C2CN(C(=O)c3ccc4c(ccn4-c4ccc(C(F)(F)F)cn4)c3)C2)CC1 [Cpd 586, 5-({3-[4-(Phenylcarbonyl)piperazin-1-yl]azetidin-1-yl}carbonyl)-1-[5-(trifluoromethyl)pyridin-2-yl]-1H-indole]	Kd (mutant MGL; [4]): 0.086 µM
18 nM	Cc1nn(Cc2ccc(Cl)cc2)c2sc(C(=O)N3CC(N4CCN(C(=O)c5nccs5)CC4)C3)cc12 [Cpd 1053]	Kd (mutant MGL; [4]): 0.247 µM
< 5 nM	O=C(c1nccs1)N1CCN(C2CN(C(=O)c3ccc4c(ccn4-c4ccc(F)cc4)c3F)C2)CC1 [Cpd 1348, 4-Fluoro-1-(4-fluorophenyl)-5-({3-[4-(1,3-thiazol-2-ylcarbonyl)piperazin-1-yl]azetidin-1-yl}carbonyl)-1H-indole]	Kd (mutant MGL; [6]): 0.002 µM
16 nM	O=C(c1ccc2nc(N3CCC(F)(F)CC3)sc2c1)N1CC(N2CCN(C(=O)c3nccs3)CC2)C1 [Cpd 671]	Kd (mutant MGL; [6]): 0.018 µM
154 nM	Cc1c(C(=O)N2CC(N3CCN(C(=O)c4nccs4)CC3)C2)[nH]c2ccc(F)cc12 [Cpd 719]	Kd (mutant MGL; [4]): 0.119 µM
24 nM	O=C(c1ccc2nn(CCc3ccc(F)cc3)cc2c1)N1CC(N2CCN(C(=O)c3nccs3)CC2)C1 [Cpd 1050, 2-[2-(4-Fluorophenyl)ethyl]-5-({3-[4-(1,3-thiazol-2-ylcarbonyl)piperazin-1-yl]azetidin-1-yl}carbonyl)-2H-indazole]	Kd (mutant MGL; [6]): 0.085 µM
